Data: BindingDB's records for doi:10.1021/jm0002782 (Abbott Laboratories, 2000)

test: Evaluated for its ability to block the adherence of JY-8 cells to immobilized ICAM-1.

First: O=C(/C=C/c1ccccc1Sc1ccc(Cl)cc1Cl)NCCCCCCO [3-[2-(2,4-Dichloro-phenylsulfanyl)-phenyl]-N-(6-hydroxy-hexyl)-acrylamide]
Second: O=C(/C=C/c1ccccc1Sc1ccc(Cl)cc1Cl)N1CCOCC1 [3-[2-(2,4-Dichloro-phenylsulfanyl)-phenyl]-1-morpholin-4-yl-propenone]
The IC50 of the first is 2.5-fold lower: 2100 nM for the first, 5300 nM for the second.

First: CC(=O)N1CCN(C(=O)/C=C/c2ccc(Sc3ccc(Cl)cc3Cl)c(Cl)c2)CC1 [1-(4-Acetyl-piperazin-1-yl)-3-[3-chloro-4-(2,4-dichloro-phenylsulfanyl)-phenyl]-propenone]
Second: CC(=O)N1CCN(C(=O)/C=C/c2ccc(Sc3ccc(Cl)cc3Cl)c([N+](=O)[O-])c2)CC1 [1-(4-Acetyl-piperazin-1-yl)-3-[4-(2,4-dichloro-phenylsulfanyl)-3-nitro-phenyl]-propenone]
The IC50 of the first is 3.8-fold higher: 240 nM for the first, 63 nM for the second. The second is the more potent here.

First: CCc1ccccc1Sc1ccc(/C=C/C(=O)N2CCN(C(C)=O)CC2)cc1[N+](=O)[O-] [1-(4-Acetyl-piperazin-1-yl)-3-[4-(2-ethyl-phenylsulfanyl)-3-nitro-phenyl]-propenone]
Second: O=C(/C=C/c1ccc(Sc2ccccc2/C=C/C(=O)N2CCOCC2)c(Cl)c1)N1CCOCC1 [3-{3-Chloro-4-[2-(3-morpholin-4-yl-3-oxo-propenyl)-phenylsulfanyl]-phenyl}-1-morpholin-4-yl-propenone]
The IC50 of the first is 1.9-fold lower: 100 nM for the first, 190 nM for the second. The first is the more potent here.

Compared with `O=C(/C=C/c1ccc(Sc2ccc(Cl)cc2Cl)c([N+](=O)[O-])c1)NCCCN1CCCC1=O` [3-[4-(2,4-Dichloro-phenylsulfanyl)-3-nitro-phenyl]-N-[3-(2-oxo-pyrrolidin-1-yl)-propyl]-acrylamide], `O=C(/C=C/c1ccc(Sc2ccccc2CN2CCN(Cc3ccc4c(c3)OCO4)CC2)c(Cl)c1)N1CCOCC1` [3-{4-[2-(4-Benzo[1,3]dioxol-5-ylmethyl-piperazin-1-ylmethyl)-phenylsulfanyl]-3-chloro-phenyl}-1-morpholin-4-yl-propenone] is 2.6-fold higher in IC50: 140 nM for the first, 360 nM for the second.

test: as above; remark: another data set of the same source

For `O=C(/C=C/c1ccc(Sc2ccc(Cl)cc2Cl)c(Cl)c1)NCCCN1CCCC1=O` [3-[3-Chloro-4-(2,4-dichloro-phenylsulfanyl)-phenyl]-N-[3-(2-oxo-pyrrolidin-1-yl)-propyl]-acrylamide], the IC50 was 700 nM.
